The record followed here is PubChem BioAssay (NCI).

Common to all, as to assay: NCI tumour cell line growth inhibition, 48 h
Assay [1] has as its system SK-OV-3 ovarian.
Assay [2] deals with COLO 205 colon.
Assay [3] relates to OVCAR-5 ovarian.
The subject of assay [4] is MDA-MB-435.
Assay [5] relates to MDA-MB-231 breast.
The test system of assay [6] is RPMI-8226 leukemia.
In assay [7] the test system is ACHN renal.
In assay [8] the test system is KM12 colon.
The test system of assay [9] is U251 CNS.
Assay [10] relates to SR leukemia.
Assay [11] has as its system SK-MEL-5 melanoma.
Assay [12] relates to T-47D breast.
Assay [13] deals with SW-620 colon.

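Briefly, cells in 96-well plates were exposed to five compound concentrations for 48 h, and endpoints were estimated by linear interpolation. GI50 is the concentration that inhibits growth by half. TGI: concentration producing complete growth inhibition.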

With `CCN1CCCC(Nc2cc(C)nc(/N=C(/N)Nc3ccc(Cl)c(Cl)c3)n2)C1` (stereo not drawn), the TGI in [1] amounted to 5.24 µM; in assay [2], 2.95 µM; in assay [3], 8.11 µM; in assay [4] it was 2.89 µM; in assay [5], 3.84 µM; in [6], 2.3 µM. The TGI in assay [7] came out at 5.56 µM; in [8] it was 3.46 µM; in assay [9] it was 2.6 µM; in [10] it was 2.88 µM; in [11], 5.35 µM.

Take `Oc1nc(N/N=C/c2ccccc2)[nH]c1/C=C1\C=Nc2ccccc21`: the TGI in assay [1], in assay [2], in [3], in assay [4], in assay [5] and in assay [6] was greater than 100 µM in each case. Also, the TGI was greater than 100 µM in assay [12]; greater than 100 µM in assay [13]; greater than 100 µM in assay [7]; greater than 100 µM in assay [8]; 51.3 µM in assay [9]; greater than 100 µM in assay [11].

Consider `Cc1ccc(S(=O)(=O)c2ccc([N+](=O)[O-])o2)cc1`, for which the TGI amounted to 35.2 µM in assay [1]; 2.27 µM in assay [2]; 4.77 µM in [3]; 3.69 µM in [4]; 4.78 µM in assay [5]; 6.24 µM in [12]. The TGI in assay [13] amounted to 1.73 µM; in [7], 3.03 µM; in assay [9] it was 17.7 µM; in [11], 23 µM.

As to `COc1cc2c(cc1C)NC(=O)/C2=C\c1ccncc1`, the TGI was 13.7 µM in [1]; greater than 100 µM in assay [2]; 29.1 µM in assay [3]; 20 µM in [4]; 16.8 µM in assay [12]; greater than 100 µM in [13]. Further, the TGI in assay [7] was found to be 20.2 µM; in assay [8] it was 12.5 µM; in assay [9], 18.6 µM; in assay [10], 8.04 µM; in [11], 8.47 µM.

On to `C#CCSc1nc(N)c2ncn(C3OC(COP(=O)(O)O)C(O)C3O)c2n1` (stereo not drawn), for which the TGI in [1], in assay [2], in assay [3], in [6], in assay [13] and in assay [7] was greater than 239 µM each time. Besides, the TGI in assay [8], in assay [10] and in assay [11] was greater than 239 µM each time.

As to `Nc1ccc(C(=O)NN2C(=O)C(Cl)C2c2cccc(O)c2)cc1` (stereo not drawn), the TGI in assay [1] worked out at 34.3 µM; in [2] it was 34.6 µM; in assay [3], 41.9 µM; in assay [6] it was 41.7 µM; in [13] it was 36.6 µM; in assay [7] it was 37.9 µM. Further, the figures for the TGI in assay [8], in assay [9] and in [11] were 22.5 µM, 25.2 µM and 31.7 µM, respectively.

In the case of `COc1ccc(-c2onc(-c3c(C)cc(C)cc3C)c2C2=NCCN2)cc1`, the TGI in [1] was greater than 100 µM; in assay [2] it was 49 µM; in assay [3], greater than 100 µM; in assay [6], greater than 100 µM; in [13], greater than 100 µM; in assay [7] it was greater than 100 µM. Further, the TGI in assay [8] is greater than 100 µM; in assay [9], 46.7 µM; in [10], greater than 100 µM; in assay [11], 36.6 µM.

As to `CC(=O)Nc1ccc(C(=O)NN2C(=O)C(Cl)C2c2ccc(O)cc2)cc1` (stereo not drawn), the TGI in assay [1], in assay [2], in assay [3], in [13], in [7] and in assay [9] was greater than 100 µM throughout. This molecule also showed a TGI in assay [11] greater than 100 µM.

`CC1=NN(C(=O)c2ccc(Cl)cc2)C(=O)/C1=C/c1ccc(Cl)cc1`: the TGI in [1], in assay [2], in [3], in [6], in [13] and in assay [7] was greater than 100 µM in each case. The TGI in [8], in assay [9] and in assay [11] was greater than 100 µM throughout.

For `Nc1ccc(-c2nc3ccc(F)cc3s2)cc1`, the TGI in [2] was 33.2 µM; in assay [3], 73.6 µM; in [4], 70.4 µM; in assay [5], 64 µM; in [6] it was 91.7 µM; in assay [13], greater than 100 µM. The TGI was 66.6 µM in assay [7]; 64.3 µM in assay [8]; greater than 100 µM in assay [9]; greater than 100 µM in assay [10]; 37.8 µM in assay [11]. In addition, the GI50 in assay [3] was 27.2 µM.

As for `C/C=C/[C@H]1O[C@@](O)([C@@H](C)[C@H](O)[C@H](C)[C@H]2OC(=O)/C(OC)=C/C(C)=C/[C@@H](C)[C@@H](O)[C@@H](CC)[C@@H](O)[C@H](C)C/C(C)=C/C=C/[C@@H]2OC)C[C@H](OC2CC(O)C(OC(N)=O)C(C)O2)[C@@H]1C` (stereo partly drawn), the TGI in assay [1] amounted to 25.4 µM; in assay [2], 4.91 µM; in [3], 25.7 µM; in [4] it was 14.8 µM; in assay [5] it was 22.7 µM; in assay [6], 0.205 µM. Moreover, the TGI in assay [12] is 2.12 µM; in assay [13] it was 15.3 µM; in assay [7] it was 16.7 µM; in assay [8], 17.4 µM; in assay [9], 17.4 µM; in assay [11] it was 0.231 µM.

Consider `CSCCCNC(=O)c1csc(-c2csc(CCNC(=O)CNC(=O)CNC(=O)CNC(=O)OC(C)(C)C)n2)n1`, for which the TGI in [1], in assay [2], in assay [3], in [4], in assay [5] and in assay [13] was greater than 100 µM throughout. Also, the TGI in [7], in assay [8], in assay [9] and in assay [11] was greater than 100 µM each time.

Turning to `Cc1ccnc(NC(=S)Nc2cccc(Cl)c2)c1`, the TGI in assay [1], in [2], in [3], in [4], in [6] and in assay [12] was greater than 100 µM throughout. Moreover, the TGI in assay [13], in [8], in [9], in assay [10] and in assay [11] was greater than 100 µM each time.
